Experimental data published in publication PMC10423218, “Molecular mechanism underlying regulation of Arabidopsis CLCa transporter by nucleotides and phospholipids” (Nature Communications, 2023).

Columns and labels:
AtCLCa [1] = target: T1, AtCLCa (Arabidopsis thaliana, UniProt P92941); test: whole-cell patch clamp, HEK293T; assay type: cell-based; design: gene CLC-A; full-length, homodimer; patch clamp: pKH3 vector in HEK293T; conditions: 5 mM in pipette (cytosolic side); nitrate bath; pH 7.4
T1 sequence (P92941 1-775): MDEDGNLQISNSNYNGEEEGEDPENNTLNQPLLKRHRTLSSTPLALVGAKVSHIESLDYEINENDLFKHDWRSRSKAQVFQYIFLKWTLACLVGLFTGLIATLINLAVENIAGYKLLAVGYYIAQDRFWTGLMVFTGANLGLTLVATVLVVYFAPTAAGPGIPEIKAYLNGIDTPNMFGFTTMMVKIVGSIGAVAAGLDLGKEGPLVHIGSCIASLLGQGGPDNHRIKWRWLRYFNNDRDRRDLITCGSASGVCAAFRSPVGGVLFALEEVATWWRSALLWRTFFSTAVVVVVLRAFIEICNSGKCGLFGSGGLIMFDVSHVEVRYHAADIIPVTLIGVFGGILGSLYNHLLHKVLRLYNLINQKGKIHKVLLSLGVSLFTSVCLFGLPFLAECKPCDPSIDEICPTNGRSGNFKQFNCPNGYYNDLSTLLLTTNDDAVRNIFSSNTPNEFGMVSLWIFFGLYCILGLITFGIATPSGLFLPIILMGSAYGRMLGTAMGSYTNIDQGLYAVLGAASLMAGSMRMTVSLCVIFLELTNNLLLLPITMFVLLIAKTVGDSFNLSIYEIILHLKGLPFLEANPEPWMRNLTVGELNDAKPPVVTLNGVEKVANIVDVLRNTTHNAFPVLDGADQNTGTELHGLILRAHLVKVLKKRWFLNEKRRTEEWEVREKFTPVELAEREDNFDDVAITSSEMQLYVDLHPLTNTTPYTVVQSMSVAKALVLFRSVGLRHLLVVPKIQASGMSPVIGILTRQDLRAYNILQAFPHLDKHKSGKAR

AtCLCa [2] = target: T1, AtCLCa; test: whole-cell patch clamp, HEK293T; assay type: cell-based; design: gene CLC-A; full-length, homodimer; patch clamp: pKH3 vector in HEK293T; conditions: pipette (cytosolic side); pH 7.4
AtCLCa ΔN44 mutant = target: T2, AtCLCa ΔN44 mutant (Arabidopsis thaliana, UniProt P92941); test: whole-cell patch clamp, HEK293T; assay type: cell-based; conditions: 5 mM in pipette (cytosolic side); nitrate bath; pH 7.4
T2 construct: gene CLC-A; N-terminal 44-residue deletion, beta-hairpin retained, homodimer, pKH3 vector in HEK293T
T2 sequence (P92941 45-775): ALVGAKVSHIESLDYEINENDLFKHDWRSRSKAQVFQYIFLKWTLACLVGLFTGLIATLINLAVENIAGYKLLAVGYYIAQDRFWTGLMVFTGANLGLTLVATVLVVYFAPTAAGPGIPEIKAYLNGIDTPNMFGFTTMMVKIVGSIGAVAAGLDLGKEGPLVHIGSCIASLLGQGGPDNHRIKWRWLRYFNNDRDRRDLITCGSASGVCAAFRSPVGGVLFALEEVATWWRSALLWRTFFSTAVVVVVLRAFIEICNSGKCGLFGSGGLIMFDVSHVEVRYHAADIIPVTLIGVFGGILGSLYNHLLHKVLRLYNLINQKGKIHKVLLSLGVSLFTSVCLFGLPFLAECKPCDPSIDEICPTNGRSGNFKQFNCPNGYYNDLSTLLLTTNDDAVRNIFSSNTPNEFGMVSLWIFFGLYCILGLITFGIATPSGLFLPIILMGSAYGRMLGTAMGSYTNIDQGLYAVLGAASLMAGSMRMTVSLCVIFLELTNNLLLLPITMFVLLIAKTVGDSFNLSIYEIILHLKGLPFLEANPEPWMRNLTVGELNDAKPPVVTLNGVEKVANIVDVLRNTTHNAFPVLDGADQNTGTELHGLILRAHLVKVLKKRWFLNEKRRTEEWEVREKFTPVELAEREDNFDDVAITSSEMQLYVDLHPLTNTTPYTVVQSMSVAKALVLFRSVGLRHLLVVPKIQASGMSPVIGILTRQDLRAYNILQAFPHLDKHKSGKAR

AtCLCa [3] = target: T3, AtCLCa (Arabidopsis thaliana, UniProt P92941, E55A/S56A); test: whole-cell patch clamp, HEK293T; assay type: cell-based; conditions: 5 mM in pipette (cytosolic side); nitrate bath; pH 7.4
T3 construct: gene CLC-A; full-length, homodimer; structures: Pichia pastoris GS115, C-terminal GFP-6xHis tag cut by TEV, MSP1D1 nanodiscs; patch clamp: pKH3 vector in HEK293T
T3 sequence (P92941 1-775 E55A/S56A): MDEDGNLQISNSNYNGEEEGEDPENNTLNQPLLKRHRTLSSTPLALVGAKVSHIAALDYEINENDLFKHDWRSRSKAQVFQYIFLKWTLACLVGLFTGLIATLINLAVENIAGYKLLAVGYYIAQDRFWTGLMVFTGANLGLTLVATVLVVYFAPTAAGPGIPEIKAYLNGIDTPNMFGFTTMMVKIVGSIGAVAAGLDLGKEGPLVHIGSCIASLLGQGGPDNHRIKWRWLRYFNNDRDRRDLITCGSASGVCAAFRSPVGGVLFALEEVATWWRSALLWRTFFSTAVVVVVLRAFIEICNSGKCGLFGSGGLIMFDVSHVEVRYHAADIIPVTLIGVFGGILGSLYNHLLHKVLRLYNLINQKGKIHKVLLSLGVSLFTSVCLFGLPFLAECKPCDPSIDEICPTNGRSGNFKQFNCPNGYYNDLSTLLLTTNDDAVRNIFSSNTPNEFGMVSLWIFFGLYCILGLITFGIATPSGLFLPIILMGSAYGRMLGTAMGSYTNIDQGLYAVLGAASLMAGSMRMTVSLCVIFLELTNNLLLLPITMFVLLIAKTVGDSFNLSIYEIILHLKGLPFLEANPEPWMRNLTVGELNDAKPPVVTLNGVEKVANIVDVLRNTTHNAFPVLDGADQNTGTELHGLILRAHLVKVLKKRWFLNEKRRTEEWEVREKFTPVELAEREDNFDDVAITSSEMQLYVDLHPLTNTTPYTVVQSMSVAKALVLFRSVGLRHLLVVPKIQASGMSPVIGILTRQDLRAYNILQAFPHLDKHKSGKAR

AtCLCa [4] = target: T1, AtCLCa; test: whole-cell patch clamp, HEK293T; assay type: cell-based; design: gene CLC-A; full-length, homodimer; patch clamp: pKH3 vector in HEK293T; conditions: 5 mM in pipette (cytosolic side); nitrate bath; pH 7.4; 5 mM MgCl2; room temperature
AtCLCa [5] = target: T4, AtCLCa (Arabidopsis thaliana, UniProt P92941, D753A); test: whole-cell patch clamp, HEK293T; assay type: cell-based; conditions: 5 mM in pipette (cytosolic side); nitrate bath; pH 7.4
T4 construct: gene CLC-A; full-length, homodimer; structures: Pichia pastoris GS115, C-terminal GFP-6xHis tag cut by TEV, MSP1D1 nanodiscs; patch clamp: pKH3 vector in HEK293T
T4 sequence (P92941 1-775 D753A): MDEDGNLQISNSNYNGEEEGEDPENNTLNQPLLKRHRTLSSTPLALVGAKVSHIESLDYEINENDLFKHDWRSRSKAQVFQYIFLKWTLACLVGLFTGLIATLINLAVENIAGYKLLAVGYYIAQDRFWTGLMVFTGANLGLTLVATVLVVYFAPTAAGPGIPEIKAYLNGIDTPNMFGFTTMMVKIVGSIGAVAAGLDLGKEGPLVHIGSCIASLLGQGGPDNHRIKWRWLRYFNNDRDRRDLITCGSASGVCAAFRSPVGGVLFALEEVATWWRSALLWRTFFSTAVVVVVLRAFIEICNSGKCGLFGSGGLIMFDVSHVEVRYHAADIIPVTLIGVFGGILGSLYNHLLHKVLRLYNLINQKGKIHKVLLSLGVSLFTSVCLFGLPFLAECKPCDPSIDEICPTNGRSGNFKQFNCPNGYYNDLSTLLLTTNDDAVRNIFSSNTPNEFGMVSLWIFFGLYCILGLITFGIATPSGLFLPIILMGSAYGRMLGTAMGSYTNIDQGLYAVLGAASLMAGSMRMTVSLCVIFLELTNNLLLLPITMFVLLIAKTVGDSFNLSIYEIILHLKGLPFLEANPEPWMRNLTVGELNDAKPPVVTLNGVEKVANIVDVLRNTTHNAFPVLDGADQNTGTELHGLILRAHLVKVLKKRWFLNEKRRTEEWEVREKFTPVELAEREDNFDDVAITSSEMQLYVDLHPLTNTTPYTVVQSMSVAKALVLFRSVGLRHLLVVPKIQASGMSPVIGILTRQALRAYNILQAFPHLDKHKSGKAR

AtCLCa ΔN53 mutant = target: T5, AtCLCa ΔN53 mutant (Arabidopsis thaliana, UniProt P92941); test: whole-cell patch clamp, HEK293T; assay type: cell-based; conditions: 5 mM in pipette (cytosolic side); nitrate bath; pH 7.4
T5 construct: gene CLC-A; N-terminal deletion ΔN53 (beta-hairpin residues 44-53 removed), homodimer, pKH3 vector in HEK293T
T5 sequence (P92941 54-775): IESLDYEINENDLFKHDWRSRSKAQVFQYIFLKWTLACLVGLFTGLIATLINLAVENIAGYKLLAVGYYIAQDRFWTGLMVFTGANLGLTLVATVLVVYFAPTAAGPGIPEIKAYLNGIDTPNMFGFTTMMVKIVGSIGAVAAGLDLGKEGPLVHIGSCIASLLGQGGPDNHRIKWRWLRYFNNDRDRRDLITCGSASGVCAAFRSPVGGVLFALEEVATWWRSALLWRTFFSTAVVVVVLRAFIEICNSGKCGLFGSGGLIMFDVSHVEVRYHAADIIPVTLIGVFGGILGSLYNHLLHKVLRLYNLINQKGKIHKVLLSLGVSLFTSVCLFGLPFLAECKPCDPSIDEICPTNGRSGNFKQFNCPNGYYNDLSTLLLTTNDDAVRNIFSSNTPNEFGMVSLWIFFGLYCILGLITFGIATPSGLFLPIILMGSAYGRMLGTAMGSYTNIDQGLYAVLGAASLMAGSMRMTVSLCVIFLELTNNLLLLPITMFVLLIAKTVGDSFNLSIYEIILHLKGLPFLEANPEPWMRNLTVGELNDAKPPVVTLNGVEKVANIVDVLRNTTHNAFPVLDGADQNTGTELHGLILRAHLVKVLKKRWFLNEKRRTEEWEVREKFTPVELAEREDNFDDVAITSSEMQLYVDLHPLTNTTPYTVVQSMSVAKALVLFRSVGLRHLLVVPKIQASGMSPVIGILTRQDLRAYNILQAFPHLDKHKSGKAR

AtCLCa [6] = target: T1, AtCLCa; test: cryo-EM structure, […] Å; assay type: binding; design: gene CLC-A; full-length, homodimer; structures: Pichia pastoris GS115, C-terminal GFP-6xHis tag cut by TEV, MSP1D1 nanodiscs; patch clamp: pKH3 vector in HEK293T; conditions: Scen and Sint sites; 150 mM NaNO3, pH 8.0
[7] = target: the molecule itself; test: cryo-EM structure; AtCLCa in MSP1D1 nanodiscs with soybean polar lipid; 20 mM Tris pH 8.0 with 150 mM NaCl (AtCLCa-Cl-) or 150 mM NaNO3 (AtCLCa-NO3-); C2 symmetry applied

Nc1ncnc2c1ncn2[C@@H]1O[C@H](COP(=O)(O)OP(=O)(O)O)[C@@H](O)[C@H]1O [ADP]
inhibition of NO3^- currents at 5 mM (AtCLCa [1]): ADP produced a weak inhibition while AMP induced a negligible inhibition

Nc1ncnc2c1ncn2[C@@H]1O[C@H](COP(=O)(O)O)[C@@H](O)[C@H]1O [AMP]
inhibition of NO3^- currents at 5 mM (AtCLCa [1]): ADP produced a weak inhibition while AMP induced a negligible inhibition

Nc1ncnc2c1ncn2[C@@H]1O[C@H](COP(=O)(O)OP(=O)(O)OP(O)(O)=S)[C@@H](O)[C@H]1O [ATP-γ-S]
inhibition of currents (AtCLCa [2]): ATP-γ-S induced an inhibition comparable with ATP

Nc1ncnc2c1ncn2[C@@H]1O[C@H](COP(=O)(O)OP(=O)(O)OP(=O)(O)O)[C@@H](O)[C@H]1O [ATP]
inhibition of NO3^- currents at 5 mM (AtCLCa ΔN44 mutant): exhibits similar inhibition pattern to wild-type AtCLCa upon ATP addition
inhibition of NO3^- currents at 5 mM (AtCLCa [3]): (E55A/S56A) can completely abolish the inhibitory effect of ATP
decrease of NO3^- currents at 5 mM (AtCLCa [4]): led to a decrease of approximately half of the NO3^− currents induced by wild-type AtCLCa
inhibition of NO3^- currents at 5 mM (AtCLCa [5]): D753A mutant impairs the inhibition of ATP
inhibition of NO3^- currents at 5 mM (AtCLCa ΔN53 mutant): the NO3^− currents in ΔN53 mutant are not influenced by the addition of ATP

O=[N+]([O-])O [NO3^−]
cryo-EM structure, 3.2 Å (AtCLCa [6]): Scen and Sint were found of fair densities, which likely corresponds to the bound NO3^−

B1: Arabidopsis thaliana CLCa (AtCLCa) transporter (natural protein, UniProt P92941 1-775, looked up)
chain: MDEDGNLQISNSNYNGEEEGEDPENNTLNQPLLKRHRTLSSTPLALVGAKVSHIESLDYEINENDLFKHDWRSRSKAQVFQYIFLKWTLACLVGLFTGLIATLINLAVENIAGYKLLAVGYYIAQDRFWTGLMVFTGANLGLTLVATVLVVYFAPTAAGPGIPEIKAYLNGIDTPNMFGFTTMMVKIVGSIGAVAAGLDLGKEGPLVHIGSCIASLLGQGGPDNHRIKWRWLRYFNNDRDRRDLITCGSASGVCAAFRSPVGGVLFALEEVATWWRSALLWRTFFSTAVVVVVLRAFIEICNSGKCGLFGSGGLIMFDVSHVEVRYHAADIIPVTLIGVFGGILGSLYNHLLHKVLRLYNLINQKGKIHKVLLSLGVSLFTSVCLFGLPFLAECKPCDPSIDEICPTNGRSGNFKQFNCPNGYYNDLSTLLLTTNDDAVRNIFSSNTPNEFGMVSLWIFFGLYCILGLITFGIATPSGLFLPIILMGSAYGRMLGTAMGSYTNIDQGLYAVLGAASLMAGSMRMTVSLCVIFLELTNNLLLLPITMFVLLIAKTVGDSFNLSIYEIILHLKGLPFLEANPEPWMRNLTVGELNDAKPPVVTLNGVEKVANIVDVLRNTTHNAFPVLDGADQNTGTELHGLILRAHLVKVLKKRWFLNEKRRTEEWEVREKFTPVELAEREDNFDDVAITSSEMQLYVDLHPLTNTTPYTVVQSMSVAKALVLFRSVGLRHLLVVPKIQASGMSPVIGILTRQDLRAYNILQAFPHLDKHKSGKAR
notes: Arabidopsis thaliana CLCa, Uniprot P92941, full-length gene; C-terminal GFP-6xHis tag was fused by a short linker with a TEV protease site and cut off with TEV; residues of the linker may be left; also called AtCLCa-Cl-; AtCLCa-NO3-; source: Pichia pastoris GS115, purified (anti-GFP nanobody resin, TEV digestion, SEC), reconstituted into MSP1D1 nanodiscs; not shown: GFP, C-terminal, cleaved; …
stoichiometry N [7]: 2
